Among the test systems are A498; ACHN; BT-549; HL-60; HOP-62; HT-29; IGROV-1; LOX IMVI; MCF7; MOLT-4; NCI-H226; OVCAR-3; RPMI-8226; SF-539; SK-MEL-28; UACC-257; UACC-62; SK-MEL-2; T47D.
Assay in all cases: NCI anticancer screen, dose series, 48 h

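Test compounds were applied to cells in 96-well plates for 48 hours at 5 doses. Abbreviation: GI50, concentration required for 50% inhibition of growth.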 Activity calls are given as the source filed them. No stated cut-off is given here; in the data, active = GI50 up to about 1.1 µM and inactive = higher. Bounds are passed on as bounds.

From ChEMBL document CHEMBL1201862, “PubChem BioAssay data set” (2004) come the findings set out here.

For the compound `CC(C)C1=C(Cc2ccccc2)C(=O)O/C1=C\c1ccc(O)c(Cl)c1`, the GI50 was 17.6 µM (inactive) in the assay on A498; 14.9 µM (inactive) in the assay with ACHN; 22.2 µM (inactive) in the assay with BT-549; 15.7 µM (inactive) in the assay with HL-60; 17.7 µM (inactive) with HOP-62; 18.8 µM (inactive) in the assay with HT-29. For the same compound, the GI50 was 16.8 µM (inactive) in the assay on IGROV-1; 18.4 µM (inactive) in the assay on LOX IMVI; 15.7 µM (inactive) with MCF7; 10.9 µM (inactive) in the assay with MOLT-4; 16.6 µM (inactive) in the assay with NCI-H226; 14.8 µM (inactive) with OVCAR-3. Moreover, the GI50 in the assay with RPMI-8226 is 12.4 µM (inactive); in the assay on SF-539, 18.6 µM (inactive); with SK-MEL-28, 16.9 µM (inactive); in the assay on UACC-257, 18.8 µM (inactive); in the assay on UACC-62 it was 14.8 µM (inactive).
Regarding `O=C(OCC1OC(c2nn[nH]n2)C(OC(=O)c2ccccc2)C1OC(=O)c1ccccc1)c1ccccc1` (stereo unspecified), the GI50 with A498 is > 100 µM (inactive); with ACHN, > 100 µM (inactive); in the assay with BT-549, > 100 µM (inactive); in the assay with HL-60 it was > 100 µM (inactive); with HOP-62, > 100 µM (inactive); in the assay with HT-29, 61.9 µM (inactive). Moreover, the GI50 in the assay with LOX IMVI was > 100 µM (inactive); in the assay on MCF7 it was 41.2 µM (inactive); with MOLT-4, > 100 µM (inactive); with NCI-H226, 79.8 µM (inactive); in the assay on OVCAR-3 it was > 100 µM (inactive); in the assay on RPMI-8226, 18.6 µM (inactive). In addition, the GI50 is > 100 µM (inactive) in the assay with SF-539, > 100 µM (inactive) in the assay with SK-MEL-2, > 100 µM (inactive) in the assay on UACC-257 and 53 µM (inactive) in the assay on UACC-62.
Consider `O=[N+]([O-])c1cc(-[n+]2cc([O-])on2)ccc1F`, for which the GI50 is 17 µM (inactive) with ACHN; 16.1 µM (inactive) in the assay on BT-549; 22.6 µM (inactive) with HL-60; 15.8 µM (inactive) in the assay with HOP-62; 14.9 µM (inactive) with HT-29; 14.7 µM (inactive) in the assay on IGROV-1. In addition, the GI50 in the assay with LOX IMVI is 14.9 µM (inactive); with MCF7 it was 12.8 µM (inactive); in the assay on NCI-H226 it was 23.4 µM (inactive); in the assay with OVCAR-3 it was 17 µM (inactive); in the assay on RPMI-8226 it was 8.97 µM (inactive); in the assay with SK-MEL-28, 15.4 µM (inactive). The GI50 in the assay with SK-MEL-2 is 15.6 µM (inactive); in the assay with T47D, 2.49 µM (inactive); in the assay with UACC-257, 16.8 µM (inactive); in the assay with UACC-62 it was 17.1 µM (inactive).
Turning to `O=C1/C(=C/c2ccccc2)CCc2ccccc21`, the GI50 is 16.9 µM (inactive) with A498; 17.2 µM (inactive) in the assay on ACHN; 16.2 µM (inactive) in the assay on BT-549; 16.9 µM (inactive) in the assay with HL-60; 15.7 µM (inactive) in the assay on HOP-62; 16.6 µM (inactive) in the assay on HT-29. The GI50 in the assay with IGROV-1 is 21.4 µM (inactive); with LOX IMVI, 16.8 µM (inactive); with MCF7, 5.15 µM (inactive); with MOLT-4 it was 12.2 µM (inactive); in the assay on NCI-H226, 18.3 µM (inactive); in the assay with OVCAR-3 it was 16.6 µM (inactive). Besides, the GI50 was 3.11 µM (inactive) with RPMI-8226; 16 µM (inactive) in the assay with SF-539; 19 µM (inactive) with SK-MEL-28; 16.1 µM (inactive) in the assay with UACC-257; 17.9 µM (inactive) in the assay with UACC-62.
Take `O=C1C=CC(=NNc2ccccc2)C=CC1=O`: the GI50 with ACHN was 8.05 µM (inactive); with BT-549 it was 19.4 µM (inactive); in the assay on HL-60 it was 14 µM (inactive); in the assay with HOP-62 it was 10.8 µM (inactive); with HT-29, 13.6 µM (inactive); in the assay on IGROV-1 it was 7.94 µM (inactive). Further, the GI50 in the assay on LOX IMVI was 5.09 µM (inactive); in the assay with MCF7, 19.3 µM (inactive); in the assay on MOLT-4 it was 3.1 µM (inactive); with NCI-H226, 11.7 µM (inactive); in the assay on OVCAR-3 it was 10.3 µM (inactive); in the assay on SF-539 it was 16 µM (inactive). The GI50 with SK-MEL-28 was 14.4 µM (inactive); in the assay with SK-MEL-2 it was 15.1 µM (inactive); with T47D it was 10.2 µM (inactive); with UACC-257 it was 18.8 µM (inactive); with UACC-62, 12.8 µM (inactive).
Regarding `CN(C)c1ccc(/C=c2\c3ccccc3n3c2cc(-c2ccccc2)[n+]3C)cc1`, the GI50 with A498 is 1.42 µM (inactive); in the assay with ACHN it was 0.368 µM (active); in the assay with BT-549, 0.0304 µM (active); with HL-60 it was 0.0283 µM (active); with HOP-62, 0.303 µM (active); in the assay with HT-29 it was 0.0891 µM (active). The GI50 in the assay on IGROV-1 was 0.0689 µM (active); in the assay on LOX IMVI, 0.118 µM (active); with MCF7 it was 0.124 µM (active); in the assay on MOLT-4, 0.0914 µM (active); in the assay on NCI-H226 it was < 0.01 µM (active); in the assay with OVCAR-3, 0.0752 µM (active). For the same compound, the GI50 in the assay on RPMI-8226 was 0.0172 µM (active); with SF-539, 0.0406 µM (active); with SK-MEL-28, 0.365 µM (active); in the assay with SK-MEL-2 it was 0.175 µM (active); with UACC-257, 0.243 µM (active); with UACC-62 it was 0.365 µM (active).
Regarding `CC(C)=CCNc1ncnc2c1ncn2CCC(=O)OC(C)(C)C`, the GI50 in the assay with A498 is > 100 µM (inactive); with ACHN, > 100 µM (inactive); in the assay with BT-549, 37.5 µM (inactive); with HL-60, > 100 µM (inactive); in the assay with HOP-62, > 100 µM (inactive); with HT-29, > 100 µM (inactive). The GI50 in the assay with IGROV-1 was > 100 µM (inactive); in the assay with LOX IMVI, > 100 µM (inactive); with MCF7, > 100 µM (inactive); in the assay on MOLT-4, 14.2 µM (inactive); in the assay on NCI-H226 it was > 100 µM (inactive); in the assay on OVCAR-3 it was > 100 µM (inactive). Besides, the GI50 in the assay on RPMI-8226 is 72.3 µM (inactive); in the assay on SF-539 it was > 100 µM (inactive); in the assay with SK-MEL-28, > 100 µM (inactive); in the assay on T47D it was 24.8 µM (inactive); in the assay with UACC-62, 38.3 µM (inactive).
Turning to `Cc1cc2ccccc2n2c1nc1ccc(O)cc12`, the GI50 is 9.91 µM (inactive) in the assay on ACHN; > 10 µM (inactive) with BT-549; > 10 µM (inactive) with HL-60; > 10 µM (inactive) with HOP-62; > 10 µM (inactive) in the assay on HT-29; > 10 µM (inactive) in the assay with IGROV-1. Further, the GI50 with MCF7 is > 10 µM (inactive); in the assay on MOLT-4 it was 5.69 µM (inactive); in the assay with OVCAR-3, > 10 µM (inactive); with RPMI-8226, > 10 µM (inactive); with SF-539, > 10 µM (inactive); in the assay on SK-MEL-28 it was > 10 µM (inactive). Also, the GI50 with SK-MEL-2, in the assay on T47D, in the assay on UACC-257 and in the assay on UACC-62 was > 10 µM (inactive) each time.
For `O=S(=O)(O)CCCC1S(=O)(=O)OCCOS1(=O)=O`, the GI50 in the assay with A498, with ACHN, in the assay with BT-549, with HL-60, in the assay on HOP-62 and in the assay on HT-29 was > 100 µM (inactive) each time. The GI50 in the assay with IGROV-1, in the assay on LOX IMVI, in the assay with MCF7, in the assay on NCI-H226, in the assay with OVCAR-3 and in the assay with RPMI-8226 was > 100 µM (inactive) throughout. For the same compound, the GI50 in the assay with SF-539, in the assay on SK-MEL-28, in the assay with T47D, with UACC-257 and in the assay with UACC-62 was > 100 µM (inactive) in each case.
